Assay results taken from patent US11267826B2, “Penicillin-binding protein inhibitors” (priority 2017, dated 2022).

Key:
[1] = test system: S. aureus ATCC 29213; assay: Broth microdilution MIC assay, S. aureus; type: cell-based; details: Staphylococcus aureus, ATCC29213; broth microdilution, 16-20 hours at 37° C.; read-out: S. aureus 29213 MIC
Procedure: (§1) To determine the ability of test compounds to potentiate the inhibition of the growth of bacterial strains, classic cell based broth microdilution MIC assays were employed. MIC assays are performed according to CLSI methods except where otherwise noted (CLSI, 2011 and CLSI, 2009). The reference strain S. aureus ATCC 29213 and the hyper-permeable E. coli 901C were used to determine the ability of the PBP compounds to inhibit bacterial growth. Briefly, cryo-preserved bacterial cultures of clinical strains are streaked for isolation on appropriate agar medium, in this case Mueller Hinton II agar. Following incubation to allow formation of colonies these plates are sealed with parafilm and stored refrigerated for up to two weeks. For preparation of assay inocula and to ensure low variability, at least 5 colonies are picked from the agar plates with an inoculating loop and aseptically transferred to a culture tube containing 3 mL of Mueller-Hinton Broth (supplemented with divalent cations to required levels based on Manufacturers' certification). The broth culture is grown for 3-5 hours at 37° C. with shaking at 200 rpm. Meanwhile, 2-fold serial dilutions of test compounds are conducted in a 96 well plate with a final volume of 75 μL per well at 2-fold the final desired concentration. After the dilution plates are set up the growing cultures are then diluted in a cuvette containing MH II broth and the optical density is measured at 600 nm. Inocula are diluted such that 75 μL of this culture in Mueller-Hinton Broth results in a starting bacterial concentration of 5×10^5 CFU/mL when added to the dilution plates. The plates are incubated 16-20 hours at 37° C. The MIC is read visually as the lowest concentration well with no bacterial growth.

[2] = test system: hyper-permeable E. coli 901C; assay: Broth microdilution MIC assay, hyper-permeable E. coli; type: cell-based; details: Escherichia coli, read-out: E. coli 901C MIC
Procedure: as §1

Row | Structure (SMILES) | MIC [1] [µg/mL] | MIC [2] [µg/mL]
1 | Nc1nc(C(CC(=O)O)C(=O)N[C@H]2Cc3cccc(C(=O)O)c3OB2O)cs1 (mixture of isomers) [Example 99, (3R)-3-(2-(2-aminothiazol-4-yl)-3-carboxypropanamido)-2-hydroxy-3,4-dihydro-2H-benzo[e][1,2]oxaborinine-8-carboxylic Acid] | > 128 | 64 to 128
2 | Nc1nc(C(=NO)C(=O)NC2Cc3cccc(C(=O)O)c3OB2O)ns1 (stereo in doubt) [Example 20, (S,Z)-3-(2-(5-amino-1,2,4-thiadiazol-3-yl)-2-(hydroxyimino)acetamido)-2-hydroxy-3,4-dihydro-2H-benzo[e][1,2]oxaborinine-8-carboxylic Acid] | > 128 | > 128
3 | Nc1ncc(C(=NO)C(=O)N[C@H]2Cc3cccc(C(=O)O)c3OB2O)s1 (stereo in doubt) [Example 95, (R,Z)-3-(2-(2-aminothiazol-5-yl)-2-(hydroxyimino)acetamido)-2-hydroxy-3,4-dihydro-2H-benzo[e][1,2]oxaborinine-8-carboxylic Acid] | < 64 | > 128
4 | Nc1ncc(C(=NO)C(=O)N[C@H]2Cc3cccc(C(=O)O)c3OB2O)s1 (stereo in doubt) [Example 96, (R,E)-3-(2-(2-aminothiazol-5-yl)-2-(hydroxyimino)acetamido)-2-hydroxy-3,4-dihydro-2H-benzo[e][1,2]oxaborinine-8-carboxylic Acid] | 64 to 128 | > 128
5 | CO/N=C(\C(=O)N[C@H]1Cc2cccc(C(=O)O)c2OB1O)c1nsc(N)n1 [Example 2, (R,Z)-3-(2-(5-amino-1,2,4-thiadiazol-3-yl)-2-(methoxyimino)acetamido)-2-hydroxy-3,4-dihydro-2H-benzo[e][1,2]oxaborinine-8-carboxylic Acid] | > 128 | < 64
6 | CO/N=C(/C(=O)N[C@H]1Cc2cccc(C(=O)O)c2OB1O)c1cccnc1 [Example 3, (R,E)-2-hydroxy-3-(2-(methoxyimino)-2-(pyridin-3-yl)acetamido)-3,4-dihydro-2H-benzo[e][1,2]oxaborinine-8-carboxylic Acid] | > 128 | > 128
7 | CO/N=C(\C(=O)N[C@H]1Cc2cccc(C(=O)O)c2OB1O)c1cccnc1 [Example 4, (R,Z)-2-hydroxy-3-(2-(methoxyimino)-2-(pyridin-3-yl)acetamido)-3,4-dihydro-2H-benzo[e][1,2]oxaborinine-8-carboxylic Acid] | 64 to 128 | > 128
8 | CO/N=C(\C(=O)N[C@H]1Cc2cccc(C(=O)O)c2OB1O)c1ccc2c(c1)CNC2 [Example 5, (R,Z)-2-hydroxy-3-(2-(isoindolin-5-yl)-2-(methoxyimino)acetamido)-3,4-dihydro-2H-benzo[e][1,2]oxaborinine-8-carboxylic Acid] | > 128 | > 128
9 | O=C(N[C@H]1Cc2cccc(C(=O)O)c2OB1O)/C(=N\O)c1ccc2c(c1)CNC2 [Example 8, (R,Z)-2-hydroxy-3-(2-(hydroxyimino)-2-(isoindolin-5-yl)acetamido)-3,4-dihydro-2H-benzo[e][1,2]oxaborinine-8-carboxylic Acid] | < 64 | < 64
10 | Nc1nc(/C(=N/O)C(=O)N[C@@H]2Cc3cccc(C(=O)O)c3OB2O)cs1 [Example 9, (S,Z)-3-(2-(2-aminothiazol-4-yl)-2-(hydroxyimino)acetamido)-2-hydroxy3,4-dihydro-2H-benzo[e][1,2]oxaborinine-8-carboxylic Acid] | > 128 | > 128
11 | NCCNc1nc(/C(=N/O)C(=O)N[C@H]2Cc3cccc(C(=O)O)c3OB2O)cs1 [Example 10, (R,Z)-3-(2-(2-((2-aminoethyl)amino)thiazol-4-yl)-2-(hydroxyimino)acetamido)-2-hydroxy-3,4-dihydro-2H-benzo[e][1,2]oxaborinine-8-carboxylic Acid] | 64 to 128 | > 128
12 | N=C(N)Nc1nc(/C(=N/O)C(=O)N[C@H]2Cc3cccc(C(=O)O)c3OB2O)cs1 [Example 11, (R,Z)-3-(2-(2-guanidinothiazol-4-yl)-2-(hydroxyimino)acetamido)-2-hydroxy-3,4-dihydro-2H-benzo[e][1,2]oxaborinine-8-carboxylic Acid] | < 64 | > 128
13 | Nc1nc(/C(=N/OCCO)C(=O)N[C@H]2Cc3cccc(C(=O)O)c3OB2O)cs1 [Example 13, (R,Z)-3-(2-(2-aminothiazol-4-yl)-2-((2-hydroxyethoxy)imino)acetamido)-2-hydroxy-3,4-dihydro-2H-benzo[e][1,2]oxaborinine-8-carboxylic Acid] | 64 to 128 | > 128
14 | Nc1cc(/C(=N/O)C(=O)N[C@H]2Cc3cccc(C(=O)O)c3OB2O)ccn1 [Example 14, (R,Z)-3-(2-(2-aminopyridin-4-yl)-2-(hydroxyimino)acetamido)-2-hydroxy-3,4-dihydro-2H-benzo[e][1,2]oxaborinine-8-carboxylic Acid] | < 64 | > 128
15 | Nc1cc(/C(=N\O)C(=O)N[C@H]2Cc3cccc(C(=O)O)c3OB2O)ccn1 [Example 15, (R,E)-3-(2-(2-aminopyridin-4-yl)-2-(hydroxyimino)acetamido)-2-hydroxy-3,4-dihydro-2H-benzo[e][1,2]oxaborinine-8-carboxylic Acid] | 64 to 128 | > 128
16 | Nc1cccc(/C(=N/O)C(=O)N[C@H]2Cc3cccc(C(=O)O)c3OB2O)n1 [Example 16, (R,Z)-3-(2-(6-aminopyridin-2-yl)-2-(hydroxyimino)acetamido)-2-hydroxy-3,4-dihydro-2H-benzo[e][1,2]oxaborinine-8-carboxylic Acid] | < 64 | 64 to 128
17 | Nc1nc(/C(=N/OCC(=O)O)C(=O)N[C@H]2Cc3cccc(C(=O)O)c3OB2O)cs1 [Example 18, (R,Z)-3-(2-(2-aminothiazol-4-yl)-2-((carboxymethoxy)imino)acetamido)-2-hydroxy-3,4-dihydro-2H-benzo[e][1,2]oxaborinine-8-carboxylic Acid] | > 128 | < 64
18 | Nc1nc(/C(=N/O)C(=O)N[C@H]2Cc3cccc(C(=O)O)c3OB2O)ns1 [Example 19, (R,Z)-3-(2-(5-amino-1,2,4-thiadiazol-3-yl)-2-(hydroxyimino)acetamido)-2-hydroxy-3,4-dihydro-2H-benzo[e][1,2]oxaborinine-8-carboxylic Acid] | 64 to 128 | > 128
19 | C[N+]1(Cc2ccc3c(c2C(=O)[O-])OB(O)[C@@H](NC(=O)/C(=N\O)c2csc(N)n2)C3)CCCC1 [Example 26, (R,Z)-3-(2-(2-aminothiazol-4-yl)-2-(hydroxyimino)acetamido)-2-hydroxy-7-((1-methylpyrrolidin-1-ium-1-yl)methyl)-3,4-dihydro-2H-benzo[e][1,2]oxaborinine-8-carboxylate] | < 64 | –
20 | Nc1nc(/C(=N/O)C(=O)N[C@H]2Cc3ccc(CN4CCC(CO)CC4)c(C(=O)O)c3OB2O)cs1 [Example 29, (R,Z)-3-(2-(2-aminothiazol-4-yl)-2-(hydroxyimino)acetamido)-2-hydroxy-7-((4-(hydroxymethyl)piperidin-1-yl)methyl)-3,4-dihydro-2H-benzo[e][1,2]oxaborinine-8-carboxylic Acid] | > 128 | –
21 | C[N+]1(Cc2ccc3c(c2C(=O)[O-])OB(O)[C@@H](NC(=O)/C(=N\O)c2csc(N)n2)C3)CCC(CO)CC1 (stereo partly drawn) [Example 30, (R,Z)-3-(2-(2-aminothiazol-4-yl)-2-(hydroxyimino)acetamido)-2-hydroxy-7-((4-(hydroxymethyl)-1-methylpiperidin-1-ium-1-yl)methyl)-3,4-dihydro-2H-benzo[e][1,2]oxaborinine-8-carboxylate] | < 64 | –
22 | CN(CC(=O)O)Cc1ccc2c(c1C(=O)O)OB(O)[C@@H](NC(=O)/C(=N\O)c1csc(N)n1)C2 [Example 31, (R,Z)-3-(2-(2-aminothiazol-4-yl)-2-(hydroxyimino)acetamido)-7-(((carboxymethyl)(methyl)amino)methyl)-2-hydroxy-3,4-dihydro-2H-benzo[e][1,2]oxaborinine-8-carboxylic Acid] | > 128 | –
23 | C[N+]1(Cc2cc3c(c(C(=O)[O-])c2)OB(O)[C@@H](NC(=O)/C(=N\O)c2csc(N)n2)C3)CCCC1 [Example 34, (R,Z)-3-(2-(2-aminothiazol-4-yl)-2-(hydroxyimino)acetamido)-2-hydroxy-6-((1-methylpyrrolidin-1-ium-1-yl)methyl)-3,4-dihydro-2H-benzo[e][1,2]oxaborinine-8-carboxylate] | < 64 | –
24 | COC(=O)CCc1cc2c(c(C(=O)O)c1)OB(O)[C@@H](NC(=O)/C(=N\O)c1csc(N)n1)C2 [Example 36, (R,Z)-3-(2-(2-aminothiazol-4-yl)-2-(hydroxyimino)acetamido)-2-hydroxy-6-(3-methoxy-3-oxopropyl)-3,4-dihydro-2H-benzo[e][1,2]oxaborinine-8-carboxylic Acid] | < 64 | –
25 | Nc1nc(/C(=N/O)C(=O)N[C@H]2Cc3cc(C(=O)O)cc(C(=O)O)c3OB2O)cs1 [Example 38, (R,Z)-3-(2-(2-aminothiazol-4-yl)-2-(hydroxyimino)acetamido)-2-hydroxy-3,4-dihydro-2H-benzo[e][1,2]oxaborinine-6,8-dicarboxylic Acid] | > 128 | –
